Experiments:
MEK1 = MEK1 (Homo sapiens (Human), UniProt Q02750); test: MEK Inhibition Assay-2 (Z′-LYTE biochemical assay); settings: Z′-LYTE assay of Example 39; read-out: IC50 against MEK1
Protocol: MEK1 inhibitory activity of compounds were tested using the following procedure (protocol available at thermofisher.com/content/dam/LifeTech/migration/files/drug-discovery/pdfs.par.60256.file.dat/20130430%20ssbk %20customer %20protocol %20and %20assa y %20conditions.pdf). The Z′-LYTE biochemical assay (ThermoFisher) employs a fluorescence-based, coupled-enzyme format and is based on the differential sensitivity of phosphorylated and non-phosphorylated peptides to proteolytic cleavage.
Test compounds in 100% DMSO were screened in 1% DMSO (final) in the well. For 10 point titrations, 3-fold serial dilutions are conducted from the starting concentration of 30 μM.
After the 1 hour incubation, 5 μL of a 1:1024 dilution of Development Reagent A (available from Invitrogen, catalog no. PV3295) was added.
ATP solutions were diluted to a 4× working concentration in Kinase Buffer (50 mM HEPES pH 7.5, 0.01% BRIJ-35, 10 mM MgCl2, 1 mM EGTA). ATP Km apparent was previously determined using a Z′-LYTE assay. The Development Reagent was diluted in Development Buffer (available from Invitrogen, catalog no. P3127).
Assay Protocol: 2.5 μL of 4× test compound or 100 nL of 100× Test Compound plus 2.4 μL Kinase Buffer, 5 μL of the 2× Peptide/Kinase Mixture, 2.5 μL of 4×ATP Solution were added to the plates and placed on a shake plate for 30-seconds. The kinase reaction was allowed to proceed for 60-minute at room temperature, before 5 μL of Development Reagent Solution was added, and the mixture agitated for 30-seconds on a shake plate. The mixture was incubated for 60-minute at room temperature. Fluorescence was measured using a plate reader and the data were analyzed.
This control yielded 100% cleaved peptide in the Development Reaction. The 100% Phosphorylation Control, which consisted of a synthetically phosphorylated peptide of the same sequence as the peptide substrate, was designed to allow for the calculation of percent phosphorylation. This control yielded a very low percentage of cleaved peptide in the Development Reaction. The 0% Phosphorylation and 100% Phosphorylation Controls allow for the calculation of the percent phosphorylation achieved in a specific reaction well.
The minimum emission ratio in a screen was established by the 0% Inhibition Control, which contained active kinase. This control was designed to produce a 10-50% phosphorylated peptide in the Kinase Reaction. Cascade assays may produce up to 70% phosphorylated peptide.
A known inhibitor control standard curve, 10 point titration, was run for each individual kinase on the same plate as the kinase to ensure the kinase was inhibited within an expected IC50 range previously determined.
The following controls are prepared for each concentration of Test Compound assayed. […] The expected value for a non-interfering compound should be 100%. Any value outside of 90% to 110% was flagged. […] The expected value for a non-fluorescence compound should be 0%. Any value>20% was flagged.
The data in Table A was calculated. XLfit from IDBS was used. The dose response curve was curve fit to model number 205 (sigmoidal dose-response model).
Table 3 lists the MEK1 inhibition assay results of selected compounds according to the above procedure.

A375 cells = test: A375 (BRAF) GI50 cell-based assay (Cell Titer-Glo); settings: Homo sapiens, A-375, 72 hours, read-out: Assay 2: A375 (BRAF) GI50
Protocol: Alternatively, the following procedure can be used to measure cell-based activity. Test compounds were dissolved in DMSO in 10 mM stock. Cell Titer-Glo® 2.0 Luminescent cell viability assay reagent was purchased from Promega (Madison, Wis.). A375 and HCT116 cell lines were purchased from American Type Culture Collection (Manassas, Va.). For A375 cells, cell culture media was DMEM+10% FBS. For HCT116 cells, cell culture media was McCoy's 5A+10% FBS. All media were supplemented with 100 μg/mL of penicillin, and 100 μg/mL of streptomycin. Cultures were maintained at 37° C. in a humidified atmosphere of 5% CO2 and 95% air.
Test compounds were diluted in DMSO solution with 10-dose and 3-fold dilutions in a source plate starting at 10 mM. 25 nL of each test compound was delivered from the source plate to each well of the 384-well cell culture plates (T=Final) by Echo 550. 25 μL of culture medium containing 2000 of A375 or HCT116 cells was added to each of the wells in duplicates of the cell culture plates (T=0 and T=Final). 25 μL of Cell Titer Glo 2.0 reagent was added to each well of cell culture plate (T=0). The contents were mixed on an orbital shaker for 2 min and incubated at room temperature for 15 min to stabilize luminescent signal. Luminescence was recorded by Envision 2104 Multilabel Reader (PerkinElmer, Santa Clara, Calif.). The number of viable cells in culture was determined based on quantitation of the ATP present in each culture well. The cells in cell culture plate (T=Final) were incubated with the compounds at 37° C., 5% CO2 for 72 hours. 25 μL of Cell Titer Glo 2.0 reagent was added to each well. The contents were mixed on an orbital shaker for 2 min and incubated at room temperature for 15 min to stabilize luminescent signal. Luminescence was recorded by Envision 2104 Multilabel Reader (PerkinElmer, Santa Clara, Calif.). The number of viable cells in culture was determined based on quantitation of the ATP present in each culture well. The GI50 curves were plotted using the GraphPad Prism 4 program based on a sigmoidal dose-response equation Y=Bottom+(Top-Bottom)/(1+10^((Log EC50−X)*HillSlope)). All parameters in the equation were calculated by GraphPad Prism 4 program. […] Accordingly, GI50 is the value of 10^X, where X was calculated by the Curve Fitting Equation when Y=50 using Excel.
Assay 2 is the A375 (BRAF) GI50 (nM) cell-based assay as described in Example 41.

MEK1, sequence (Q02750 whole entry): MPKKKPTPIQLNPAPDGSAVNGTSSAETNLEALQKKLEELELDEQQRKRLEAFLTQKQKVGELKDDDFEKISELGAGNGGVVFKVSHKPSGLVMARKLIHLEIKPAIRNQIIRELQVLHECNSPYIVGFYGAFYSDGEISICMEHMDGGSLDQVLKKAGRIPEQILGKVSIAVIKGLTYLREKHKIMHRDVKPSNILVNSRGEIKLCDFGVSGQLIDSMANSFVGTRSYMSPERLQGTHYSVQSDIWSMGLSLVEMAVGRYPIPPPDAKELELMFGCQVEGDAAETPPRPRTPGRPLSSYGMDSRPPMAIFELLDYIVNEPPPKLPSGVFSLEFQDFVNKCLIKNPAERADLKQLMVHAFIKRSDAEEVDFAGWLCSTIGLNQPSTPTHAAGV

Question: How did the IC50 (MEK1) turn out when `N#Cc1ccc(C(=O)NOCCO)c(Nc2ccc(I)cc2F)c1F` [Compound 1.030, 4-cyano-3-fluoro-2-((2-fluoro-4-iodophenyl)amino)-N-(2-hydroxyethoxy) benzamide] was run?
Answer: The IC50 was at most 150 nM.

Question: And the GI50 (A375 cells)?
Answer: Its GI50 is at most 500 nM.

Question: For `N#Cc1ccc(C(=O)NOCC2CC2)c(Nc2ccc(I)cc2F)c1F` [Compound 1.031], which IC50 (MEK1) is on record?
Answer: Its IC50 is at most 150 nM.

Question: What about the GI50 (A375 cells) of the same molecule?
Answer: The GI50 was at most 500 nM.

Question: How did the IC50 (MEK1) turn out when `N#Cc1ccc(C(=O)NOCCO)c(Nc2ccc(I)cc2F)c1` [Compound 1.010] was run?
Answer: Its IC50 is at most 150 nM.

Question: And the GI50 (A375 cells)?
Answer: The GI50 was at most 500 nM.

Source: US11572344B2, “Cyanoaryl-aniline compounds for treatment of dermal disorders” (NFlection Therapeutics, Inc., priority 2018, dated 2023)
